Columns and labels:
[1] = test system: spontaneous hypertensive rats; assay: Arterial pressure in spontaneous hypertensive rats after seven days of gavage, with intravenous phenylephrine challenge; format: in vivo, rat; conditions: DGLA 50 or 500 mg/kg alone; effect eliminated by aspirin
Description: An in vivo investigation of anti-hypertension efficacy following co-administration of DGLA and aspirin in spontaneous hypertensive rats was conducted. This experiment investigated the efficacy of DGLA when co-administered chronically with aspirin to reduce the hypertensive response induced acutely by phenylephrine in spontaneous hypertensive rats. Spontaneously hypertensive adult male rats (250-300 g), bred by Charles River Laboratories, were used for this assay. […] The animals were pair-housed by group (low dose+aspirin, high dose+aspirin or aspirin alone) for the duration of the oral gavage prior to surgery.
The test article was formulated using olive oil as the vehicle. This stock solution was then administered by oral gavage once per day for seven consecutive days. A low and a high dose (50 mg/kg and 500 mg/kg) were tested.
A 5 mg/ml stock solution of aspirin was prepared by dissolving the appropriate amount of aspirin in 100% DMSO which was then diluted in water. The concentration of DMSO was less than 1%. The appropriate volume was administered by oral gavage to each animal once per day for seven consecutive days. The stock solution was stored at room temperature and was considered stable for the duration of the gavage.
The appropriate volume was administered to each animal by an intravenous injection at the end of the experiment on the surgery day. The stock solution was stored at 4° C. and was considered stable for the duration of the experiment.
Male spontaneous hypertensive rats weighing approximately 300 g arrived at the facility at least two days before beginning the oral gavage. Animals were assigned to one of three groups (low dose+aspirin, high dose+aspirin, and aspirin), and were pair-housed during the acclimation period. […]
Rats were anesthetized with a 2.5-3.0% isoflurane-O2 mixture in an induction box. […] Blood pressure, systemic arterial pressure (SAP), and heart rate were monitored continuously for a total of half an hour. Hypertension was detected as an increase in diastolic, systolic or mean blood pressure. […]

[2] = design: species or system human; conditions: in vivo
Description: A single-center, double-blind, randomized, placebo-controlled, two part Phase one study was performed in healthy male and female subjects aged 18 to 45 years inclusive. The primary objective of this study was to assess the safety and plasma pharmacokinetics (PK) of orally administered single doses and orally administered multiple doses of DS107G capsules (once daily for 28 days) in healthy subjects.
(§1) Subjects were randomly assigned in a 3:1 ratio of DG107G to placebo by block randomization. Single dose part one of the study comprised three cohorts of eight subjects each, with the addition of Cohort four based on evaluation of the safety data of Cohort three by the Safety Monitoring Committee (SMC). A single oral dose of DS107G or matching placebo was administered to fasted subjects in Cohorts one to three (500, 1000, and 2000 mg, respectively) in parallel; subjects in Cohort four were administered a dose of 4000 mg following completion of Cohort three. Subjects in Cohort two received 1000 mg or matching placebo in the fed state at ≥14 days after the first dose.
Safety assessments were monitored throughout the study.
In Part one of the study, subjects in Cohorts one to three were administered a single dose of study drug (either 500-, 1000-, or 2000-mg as 500-mg DS107G capsules or matching placebo capsules) in parallel on study Day 1 after at least an 8-hour fast, according to Table 20. Cohort 4 was initiated following the review of safety data from Cohort 3 by the SMC.

[3] = Phase 1 food effect on single-dose plasma pharmacokinetics (1000 mg, fasted vs fed); format: in vivo, human
Description: The effect of food on the PK of an orally administered single dose of DS107G capsule in healthy subjects; and
as §1
Food effect was evaluated in Cohort two at least 14 days after the first dose at which time a second single dose was administered, Subjects were administered a 1000-mg dose of study drug with 240 mL of water after a 10-hour fasting period and 30 minutes after starting consumption of a meal. Subjects then refrained from food intake for at least 4 hours after dosing, Food consumption was standardized for at least 12 hours after dosing using a standardized high-fat meal (800 to 1000 kcal with 500 to 600 kcal from fat and 250 kcal from carbohydrates). A typical standard test meal consisted of two eggs fried in butter, two strips of bacon, two slices of toast with butter, 120 mL of hash brown potatoes, and 240 mL of whole milk.
Subjects in Cohort two undergoing evaluation of the food effect on oral 1000 mg DGLA capsules were restricted from food consumption for at least 4 hours after dosing. Food consumption was standardized for at least 12 hours post dose using a standardized high-fat meal.

CCCCC/C=C\C/C=C\C/C=C\CCCCCCC(=O)O [DGLA, Dihomo gamma linolenic acid]
Effect on arterial pressure in spontaneously hypertensive rats [1]: successfully decreases the arterial pressure
Linearity of elimination half-life or clearance, free or total DGLA ([2]; human): no evidence of nonlinear pharmacokinetics
Mean baseline-corrected Cmax and AUC0-24 for free and total DGLA versus dose [2]: increased in a linear manner
Free DGLA Cmax occurred sooner under fasted than fed conditions (median) ([3]; single 1000 mg dose): 1 h
Mean baseline-corrected free DGLA Cmax, fasted over fed ([3]; single 1000 mg dose): about 3 fold
Mean baseline-corrected total DGLA AUC0-24, fasted over fed ([3]; single 1000 mg dose): about 1,8 fold
Mean baseline-corrected total DGLA Cmax, fasted over fed ([3]; single 1000 mg dose): about 1.5 fold
Mean free DGLA baseline-corrected AUC0-24, fasted over fed ([3]; single 1000 mg dose): about 2 fold
Mean baseline-corrected AUC0-24, total DGLA over free DGLA ([3]; single 1000 mg dose, fasted): ~54 fold
Mean baseline-corrected Cmax, total DGLA over free DGLA ([3]; single 1000 mg dose, fasted): ~10 fold
Mean baseline-corrected AUC0-24, total DGLA over free DGLA ([3]; single 1000 mg dose, fed): ~56 fold
Mean baseline-corrected Cmax, total DGLA over free DGLA ([3]; single 1000 mg dose, fed): ~20 fold
Rate and extent of total DGLA absorption (mean Cmax and AUC0-24), fasted higher than fed ([3]; single 1000-mg dose): approximately 50%
